Source: ChEMBL document CHEMBL3997821, “Design, synthesis and evaluation of novel pyrazolo-pyrimido[4,5-d]pyrimidine derivatives as potent antibacterial and biofilm inhibitors” (Bioorg Med Chem Lett, 2017)
Converted amounts (≈) assume the structure as drawn.

How the values were obtained:
Type in all cases: functional
Bacillus subtilis [1] = experiment: Antibacterial activity against Bacillus subtilis MTCC 121 after 24 hrs by well diffusion method; settings: MTCC 121, 24 h
Staphylococcus aureus [2] = experiment: Antibacterial activity against Staphylococcus aureus MTCC 96 after 24 hrs by well diffusion method; settings: MTCC 96, 24 h
Staphylococcus aureus [3] = experiment: Antibacterial activity against Staphylococcus aureus MLS16 MTCC 2940 after 24 hrs by well diffusion method; settings: MLS16 MTCC 2940, 24 h
Micrococcus luteus [4] = experiment: Antibacterial activity against Micrococcus luteus MTCC 2470 after 24 hrs by well diffusion method; settings: MTCC 2470, 24 h
Raoultella planticola = experiment: Antibacterial activity against Klebsiella planticola MTCC 530 after 24 hrs by well diffusion method; settings: MTCC 530, 24 h
Escherichia coli = experiment: Antibacterial activity against Escherichia coli MTCC 739 after 24 hrs by well diffusion method; settings: MTCC 739, 24 h
Pseudomonas aeruginosa = experiment: Antibacterial activity against Pseudomonas aeruginosa MTCC 2453 after 24 hrs by well diffusion method; settings: MTCC 2453, 24 h
Staphylococcus aureus [5] = experiment: Bactericidal activity against Staphylococcus aureus MTCC 96 after 24 hrs by serial dilution method; settings: MTCC 96, 24 h
Bacillus subtilis [6] = experiment: Bactericidal activity against Bacillus subtilis MTCC 121 after 24 hrs by serial dilution method; settings: MTCC 121, 24 h
Staphylococcus aureus [7] = experiment: Bactericidal activity against Staphylococcus aureus MLS16 MTCC 2940 after 24 hrs by serial dilution method; settings: MLS16 MTCC 2940, 24 h
Micrococcus luteus [8] = experiment: Bactericidal activity against Micrococcus luteus MTCC 2470 after 24 hrs by serial dilution method; settings: MTCC 2470, 24 h

SMILES | MIC (Bacillus subtilis [1]) [µg/mL] | MIC (Staphylococcus aureus [2]) [µg/mL] | MIC (Staphylococcus aureus [3]) [µg/mL] | MIC (Micrococcus luteus [4]) [µg/mL] | MIC (Raoultella planticola) [µg/mL] | MIC (Escherichia coli) [µg/mL] | MIC (Pseudomonas aeruginosa) [µg/mL] | MBC (Staphylococcus aureus [5]) [µg/mL] | MBC (Bacillus subtilis [6]) [µg/mL] | MBC (Staphylococcus aureus [7]) [µg/mL] | MBC (Micrococcus luteus [8]) [µg/mL]
Cc1ccc(N2C=Nc3c(c(=O)n(C)c(=O)n3C)C2c2cn(-c3ccccc3)nc2-c2ccccc2)cc1 (stereo unspecified) | > 125 | > 125 | > 125 | > 125 | > 125 | > 125 | > 125 |  |  |  | 
COc1ccc(N2C=Nc3c(c(=O)n(C)c(=O)n3C)C2c2cn(-c3ccccc3)nc2-c2cccs2)cc1 (stereo unspecified) | 31.2 (≈ 59.5 µM) | 15.6 (≈ 29.7 µM) | 15.6 (≈ 29.7 µM) | 15.6 (≈ 29.7 µM) | > 125 | > 125 | > 125 | 31.2 (≈ 59.5 µM) | 31.2 (≈ 59.5 µM) | 31.2 (≈ 59.5 µM) | 15.6 (≈ 29.7 µM)
Cn1c2c(c(=O)n(C)c1=O)C(c1cn(-c3ccccc3)nc1-c1ccccc1)N(c1ccc(Cl)cc1)C=N2 (stereo unspecified) | > 125 | > 125 | > 125 | > 125 | > 125 | > 125 | > 125 | 62.5 (≈ 120 µM) | 62.5 (≈ 120 µM) | 62.5 (≈ 120 µM) | 31.2 (≈ 59.7 µM)
Cn1c2c(c(=O)n(C)c1=O)C(c1cn(-c3ccccc3)nc1-c1ccc([N+](=O)[O-])cc1)N(c1ccc(Cl)cc1)C=N2 (stereo unspecified) | > 125 | > 125 | > 125 | > 125 | > 125 | > 125 | > 125 |  |  |  | 
Cn1c2c(c(=O)n(C)c1=O)C(c1cn(-c3ccccc3)nc1-c1ccc(Cl)cc1)N(c1ccccc1)C=N2 (stereo unspecified) | > 125 | > 125 | > 125 | > 125 | > 125 | > 125 | > 125 |  |  |  | 
Cn1c2c(c(=O)n(C)c1=O)C(c1cn(-c3ccccc3)nc1-c1ccc(Cl)cc1)N(c1cccc([N+](=O)[O-])c1)C=N2 (stereo unspecified) | > 125 | > 125 | > 125 | > 125 | > 125 | > 125 | > 125 |  |  |  | 
Cc1ccc(-c2nn(-c3ccccc3)cc2C2c3c(n(C)c(=O)n(C)c3=O)N=CN2c2ccccc2)cc1 (stereo unspecified) | > 125 | > 125 | > 125 | > 125 | > 125 | > 125 | > 125 |  |  |  | 
Cn1c2c(c(=O)n(C)c1=O)C(c1cn(-c3ccccc3)nc1-c1ccccc1)N(c1ccccc1)C=N2 (stereo unspecified) | 62.5 (≈ 128 µM) | 31.2 (≈ 63.9 µM) | 15.6 (≈ 31.9 µM) | 7.8 (≈ 16 µM) | > 125 | > 125 | > 125 |  |  |  | 
Cn1c2c(c(=O)n(C)c1=O)C(c1cn(-c3ccccc3)nc1-c1cccs1)N(c1cccc([N+](=O)[O-])c1)C=N2 (stereo unspecified) | > 125 | > 125 | > 125 | > 125 | > 125 | > 125 | > 125 |  |  |  | 
Cc1ccc(-c2nn(-c3ccccc3)cc2C2c3c(n(C)c(=O)n(C)c3=O)N=CN2c2cccc([N+](=O)[O-])c2)cc1 (stereo unspecified) | > 125 | > 125 | > 125 | > 125 | > 125 | > 125 | > 125 |  |  |  | 
Cn1c2c(c(=O)n(C)c1=O)C(c1cn(-c3ccccc3)nc1-c1ccc(Cl)cc1)N(c1ccc(Cl)cc1)C=N2 (stereo unspecified) | > 125 | > 125 | > 125 | > 125 | > 125 | > 125 | > 125 |  |  |  | 
Cn1c2c(c(=O)n(C)c1=O)C(c1cn(-c3ccccc3)nc1-c1cccs1)N(c1ccccc1)C=N2 (stereo unspecified) | 31.2 (≈ 63.1 µM) | 31.2 (≈ 63.1 µM) | 15.6 (≈ 31.5 µM) | 15.6 (≈ 31.5 µM) | > 125 | > 125 | > 125 |  |  |  | 
Cn1c2c(c(=O)n(C)c1=O)C(c1cn(-c3ccccc3)nc1-c1ccc([N+](=O)[O-])cc1)N(c1ccccc1)C=N2 (stereo unspecified) | > 125 | > 125 | > 125 | > 125 | > 125 | > 125 | > 125 |  |  |  | 
COc1ccc(N2C=Nc3c(c(=O)n(C)c(=O)n3C)C2c2cn(-c3ccccc3)nc2-c2ccccc2)cc1 (stereo unspecified) | > 125 | > 125 | > 125 | > 125 | > 125 | > 125 | > 125 |  |  |  | 
